Consider 23 compounds from ChEMBL document CHEMBL1145608, “Selective androgen receptor modulators based on a series of 7H-[1,4]oxazino[3,2-g]quinolin-7-ones with improved in vivo activity” (Bioorg Med Chem Lett, 2008).

Calls of active or inactive are those of the source.

The target in series [1] is T1, Androgen receptor (Homo sapiens, UniProt P10275).
T1 sequence (P10275 whole entry): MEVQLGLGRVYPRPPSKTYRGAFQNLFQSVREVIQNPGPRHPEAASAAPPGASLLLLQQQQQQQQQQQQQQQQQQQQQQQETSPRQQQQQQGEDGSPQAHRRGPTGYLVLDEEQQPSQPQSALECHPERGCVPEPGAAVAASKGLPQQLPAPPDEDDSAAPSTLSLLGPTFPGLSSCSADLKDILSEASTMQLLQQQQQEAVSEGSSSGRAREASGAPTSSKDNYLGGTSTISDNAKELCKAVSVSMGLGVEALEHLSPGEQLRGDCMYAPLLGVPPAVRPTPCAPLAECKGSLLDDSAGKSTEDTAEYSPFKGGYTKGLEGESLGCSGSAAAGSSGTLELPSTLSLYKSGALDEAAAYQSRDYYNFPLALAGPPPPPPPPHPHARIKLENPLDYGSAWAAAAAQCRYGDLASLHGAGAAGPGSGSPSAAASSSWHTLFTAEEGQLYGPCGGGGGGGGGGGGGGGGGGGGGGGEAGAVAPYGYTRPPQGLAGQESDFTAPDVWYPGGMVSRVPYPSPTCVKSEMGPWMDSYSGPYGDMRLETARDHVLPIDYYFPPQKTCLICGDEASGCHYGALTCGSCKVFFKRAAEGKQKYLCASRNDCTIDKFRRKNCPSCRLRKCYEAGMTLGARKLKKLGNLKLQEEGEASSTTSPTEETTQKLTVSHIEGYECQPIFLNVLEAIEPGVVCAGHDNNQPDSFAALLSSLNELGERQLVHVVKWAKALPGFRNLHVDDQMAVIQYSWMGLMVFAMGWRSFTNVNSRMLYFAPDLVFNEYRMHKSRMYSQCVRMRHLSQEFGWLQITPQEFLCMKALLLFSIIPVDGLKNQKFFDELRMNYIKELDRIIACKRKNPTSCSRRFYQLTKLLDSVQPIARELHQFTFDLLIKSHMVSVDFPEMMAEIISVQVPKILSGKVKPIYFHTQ
Kind of series: biochemical.
Description: Displacement of [3H]DHT from human Androgen receptor in human MDA-MB-453 cells

The target of series [2] is T1, Androgen receptor.
Description: Antagonist activity at human androgen receptor in CV1 cells by transcriptional activation assay
Series [3] addresses T1, Androgen receptor. The source holds these as a separate data set.
Description: Agonist activity at human androgen receptor in CV1 cells by transcriptional activation assay
The test system of series [4] is Rattus norvegicus. The series can be described thus: Effect on Levator ani muscle weight maintenance in orchidectomized Sprague-Dawley rat at 10 mg/kg, po. The format is functional, organism-based. Details: dose 10 mg/kg.
A short description of series [5]: Metabolic stability in rat liver microsome at 5 uM. The format is ADME. Conditions: liver microsomes. A general note: Liver microsomes are a subcellular fraction often used to study metabolism.
Series [6] concerns Rattus norvegicus. The series can be described thus: Effect on Levator ani muscle weight maintenance in orchidectomized Sprague-Dawley rat at 3 mg/kg, po. It is filed as functional, organism-based. Further details: dose 3 mg/kg.

Turning to `Cc1cccc([C@H]2COc3cc4[nH]c(=O)cc(C(F)(F)F)c4cc3N2CC(F)(F)F)c1`, the Ki in series [1] turned out to be 180 nM. This compound also showed an IC50 in series [2] of 574 nM.
Taken in the same sequence, the figures for `O=c1cc(C(F)(F)F)c2cc3c(cc2[nH]1)OC[C@H](c1ccccc1)N3CC(F)(F)F` were 150 nM and 340 nM.
`CCCOCC1COc2cc3[nH]c(=O)cc(C(F)(F)F)c3cc2N1CC(F)(F)F` (racemic) registered an EC50 in series [3] of 4.2 nM.
Consider `COC[C@H]1COc2cc3[nH]c(=O)cc(C(F)(F)F)c3cc2N1CC(F)(F)F`, for which the EC50 in series [3] is 77 nM. In series [1], the Ki is 109 nM. For the same compound, the IC50 in series [2] came to 17 nM.
`O=c1cc(C(F)(F)F)c2cc3c(cc2[nH]1)OC[C@@H](CO)N3CC(F)(F)F` gave an EC50 in series [3] of 11 nM. In series [1], this compound gave a Ki of 15 nM. Besides, the IC50 in series [2] was found to be 60 nM.
For the compound `O=c1cc(C(F)(F)F)c2cc3c(cc2[nH]1)OC[C@H](CO)N3CC(F)(F)F`, a half-maximal effect in series [3] (EC50) was put at 6.6 nM. For the same compound, affinity in series [1] was put at a Ki of 22 nM. In series [2], this compound yielded an IC50 of 165 nM.
In series [3], `CCOCC1COc2cc3[nH]c(=O)cc(C(F)(F)F)c3cc2N1CC(F)(F)F` (racemic) came in with an EC50 of 3.2 nM.
Regarding `O=c1cc(C(F)(F)F)c2cc3c(cc2[nH]1)OC[C@@H](c1ccccc1)N3CC(F)(F)F`, the EC50 in series [3] was determined as 5.3 nM. Further, the Ki in series [1] was found to be 1.3 nM.
Taken in the same sequence, the figures for `COC[C@@H]1COc2cc3[nH]c(=O)cc(C(F)(F)F)c3cc2N1CC(F)(F)F` were 2 nM and 9.4 nM.
In series [3], `Cc1cccc([C@@H]2COc3cc4[nH]c(=O)cc(C(F)(F)F)c4cc3N2CC(F)(F)F)c1` registered an EC50 of 19 nM. Further, in series [1], the Ki stood at 1.1 nM.
Compound `O=c1cc(C(F)(F)F)c2cc3c(cc2[nH]1)OC[C@H](CF)N3CC(F)(F)F` had an EC50 in series [3] of 3.8 nM. The compound further came in with a Ki in series [1] of 2.6 nM. Also, the result in series [4] was Active. The compound further yielded a half-life at 5 µM in series [5] of 0.567 h.
As for `Cc1ccc([C@@H]2COc3cc4[nH]c(=O)cc(C(F)(F)F)c4cc3N2CC(F)(F)F)cc1`, in series [3], the EC50 amounted to 36 nM.
For `O=c1cc(C(F)(F)F)c2cc3c(cc2[nH]1)OC[C@H](C(F)(F)F)N3CC(F)(F)F`, the result in series [6] was Active. This compound displayed an EC50 in series [3] of 2 nM. This compound registered a Ki in series [1] of 5.9 nM. The compound further displayed a half-life at 5 µM in series [5] of 1.67 h.
Compound `O=c1cc(C(F)(F)F)c2cc3c(cc2[nH]1)OC[C@@H](CC(F)(F)F)N3CC(F)(F)F` gave an EC50 in series [3] of 23 nM. The compound further came in with a Ki in series [1] of 18 nM.
On the same counts, the results for `O=c1cc(C(F)(F)F)c2cc3c(cc2[nH]1)OCC(C(F)(F)F)N3CC(F)(F)F` (racemic) are 5.9 nM and 8.3 nM.
`CSCC[C@@H]1COc2cc3[nH]c(=O)cc(C(F)(F)F)c3cc2N1CC(F)(F)F` showed an EC50 in series [3] of 23 nM. Moreover, the inhibition constant Ki in series [1] is 2.4 nM.
For `O=c1cc(C(F)(F)F)c2cc3c(cc2[nH]1)OC[C@@H](C(F)(F)F)N3CC(F)(F)F`, the EC50 in series [3] amounted to 42 nM. In series [1], this compound returned a Ki of 281 nM. The same compound returned an IC50 in series [2] of 34 nM.
As for `O=c1cc(C(F)(F)F)c2cc3c(cc2[nH]1)OCC(C(F)F)N3CC(F)(F)F` (racemic), in series [3], it took 1.3 nM to reach a half-maximal effect (EC50). The affinity in series [1], expressed as Ki, was 6.6 nM.
In turn, `O=c1cc(C(F)(F)F)c2cc3c(cc2[nH]1)OC[C@@H](Cc1ccccc1)N3CC(F)(F)F` displayed an IC50 in series [2] of 51 nM.
`CSCC1COc2cc3[nH]c(=O)cc(C(F)(F)F)c3cc2N1CC(F)(F)F` (racemic): the EC50 in series [3] was determined as 28 nM. In series [2], this compound gave an IC50 of 25 nM.
As to `Cc1ccc([C@H]2COc3cc4[nH]c(=O)cc(C(F)(F)F)c4cc3N2CC(F)(F)F)cc1`, the IC50 in series [2] is 44 nM.
As to `O=c1cc(C(F)(F)F)c2cc3c(cc2[nH]1)OC[C@@H](CF)N3CC(F)(F)F`, a half-maximal response in series [3] (EC50) required 35 nM. For the same compound, in series [1], the Ki came to 32 nM. Moreover, in series [2], the IC50 is 199 nM.
In turn, `N#CCC1COc2cc3[nH]c(=O)cc(C(F)(F)F)c3cc2N1CC(F)(F)F` (racemic) registered an EC50 in series [3] of 30 nM. This compound also yielded a Ki in series [1] of 18 nM.

As usually defined, the Ki is the dissociation constant of the complex between target and ligand, obtained from inhibition or displacement. Low readings indicate tighter binding, high ones weaker binding. Broadly, the IC50 is the concentration that gives 50% inhibition. What is called EC50 is the concentration that produces a half-maximal response. Low readings indicate an effect from little substance, high ones a need for much substance. As a reminder, the half-life is the time needed for the level to fall by half in the phase considered. Low readings indicate fast loss, high ones slow loss.
